System: hyaluronan export from fibroblasts
Assay: Assay for hyaluronan transport/export inhibitors in fibroblast cell culture (hyaluronan in culture medium by ELISA)
Format: cell-based
Conditions: 48 h, 2 days at 37° C., hyaluronan concentration in culture medium, read-out: Inhibition of hyaluronan export IC50
Description: Assay for Hyaluronan Transport/Export Inhibitors in Fibroblast Cell Culture
Trypsinized fibroblasts were suspended in Dulbeccos medium at 10^5 cells/ml and 100 μl aliquots were transferred to a 96 well microtiter plate. The first row received 200 μl of the suspension and 20 μl of the inhibitors of the invention dissolved in phosphate buffered saline at concentrations of 4 mM. A serial dilution of the inhibitors was established by transfer of 100 μl aliquots from the first row to the following rows. All experiments were performed in duplicates. […] The cells were incubated for 2 days at 37° C. and aliquots (5 and 20 μl) of the culture medium were used for measurement of the hyaluronan concentration in the cell culture medium by an ELISA [125]. Briefly, the wells of a 96 well Covalink-NH-microtiter plate (NUNC) were coated with 100 μl of a mixture of […] of hyaluronan (HEALON®), 9.2 μg/ml of N-Hydroxysuccinimide-3-sulfonic acid and 615 μl/ml of 1-ethyl-3-(3-dimethylaminopropyl)-carbodiimide for 2 hours at room temperature and overnight at 4° C. The wells were washed three times with 2 M NaCl, 41 mM MgSO4, 0.05% Tween-20 in 50 mM phosphate buffered saline pH 7.2 (buffer A) and once with 2 M NaCl, 41 mM MgSO4, in phosphate buffered saline pH 7.2. Additional binding sites were blocked by incubation with 300 μl of 0.5% bovine serum albumin in phosphate buffered saline for 30 min at 37° C. Calibration of the assay was performed with standard concentrations of hyaluronan ranging from 15 ng/ml to 6000 ng/ml in equal volumes of culture medium as used for measurement of the cellular supernatants. A solution (50 μl) of the biotinylated hyaluronan binding fragment of aggrecan (Calbiochem) in 1.5 M NaCl, 0.3 M guanidinium hydrochloride, 0.08% bovine serum albumin 0.02% NaN3 25 mM phosphate buffer pH 7.0 was preincubated with 50 μl of the standard hyaluronan solutions or cellular supernatants for 1 hour at 37° C. […] The adsorption was read at 490 nm. The concentrations in the samples were calculated from a logarithmic regression curve of the hyaluronan standard solutions.

| SMILES | IC50 [µM] |
| --- | --- |
| CC(C)=CCc1c(O)cc(O)c2c1OC(c1ccc(O)cc1)CC2=O (stereo not drawn) [8-Prenylnaringenin] | 15 |
| COc1cc(O)c(CC=C(C)C)c2c1C(=O)CC(c1ccc(O)cc1)O2 (stereo not drawn) [Isoxanthohumol] | 15 |
| COc1cc(O)c(CC=C(C)C)c(O)c1C(=O)/C=C/c1ccc(O)cc1 [Xanthohumol] | 8 |
